Data reported in ChEMBL document CHEMBL5058564, “EUbOPEN Chemogenomics Library 2 (Incucyte)” (2022).

How the values were obtained:
Type in all cases: toxicity, cell-based
HEK-293T = assay: Incucyte cell viability with HEK293T; details: human, 10 µM, compound concentration 10 uM
Fibroblast = assay: Incucyte cell viability with human fibroblast; details: 10 µM, compound concentration 10 uM
U2OS = assay: Incucyte cell viability with U2OS; details: human, 10 µM, compound concentration 10 uM
[1] = 0 h, replicate number 1, timepoint 0 hours
[2] = 0 h, replicate number 2, timepoint 0 hours
[3] = 24 h, replicate number 2, timepoint 24 hours
[4] = 18 h, replicate number 1, timepoint 18 hours
[5] = 6 h, replicate number 1, timepoint 6 hours
[6] = 12 h, replicate number 1, timepoint 12 hours
[7] = 12 h, replicate number 2, timepoint 12 hours
[8] = 18 h, replicate number 2, timepoint 18 hours
[9] = 24 h, replicate number 1, timepoint 24 hours
[10] = 6 h, replicate number 2, timepoint 6 hours
Further: unitless GR value; below 1 slowed growth and below 0 cell loss.

## COc1cc(N2CCN(C)CC2)ccc1Nc1nccc(-c2cn(C)c3cnccc23)n1
HEK-293T; [1]
  Growth Rate: -0.61
HEK-293T; [2]
  Growth Rate: -0.28
HEK-293T; [3]
  Growth Rate: 0.95
Fibroblast; [1]
  Growth Rate: -0.91
Fibroblast; [2]
  Growth Rate: -0.24
U2OS; [1]
  Growth Rate: 0.8
U2OS; [2]
  Growth Rate: -1
U2OS; [3]
  Growth Rate: 0.96

## COc1cc(OC)cc(C(=O)NNC(=O)Nc2cccc3ccccc23)c1
HEK-293T; [1]
  Growth Rate: 0.01
HEK-293T; [2]
  Growth Rate: 0.45
HEK-293T; [4]
  Growth Rate: 0.97
Fibroblast; [5]
  Growth Rate: 0.64
Fibroblast; [6]
  Growth Rate: 0.93
U2OS; [1]
  Growth Rate: 0.7
U2OS; [2]
  Growth Rate: -1
U2OS; [5]
  Growth Rate: 0.36
U2OS; [6]
  Growth Rate: 1
U2OS; [7]
  Growth Rate: 0.87
U2OS; [4]
  Growth Rate: 0.78
U2OS; [8]
  Growth Rate: 0.77
U2OS; [9]
  Growth Rate: 0.87
U2OS; [3]
  Growth Rate: 0.86

## CCc1cc2c(cc1-c1cccc(S(=O)(=O)F)c1)C(C)(C)c1[nH]c3cc(C#N)ccc3c1C2=O
HEK-293T; [1]
  Growth Rate: 0.26
HEK-293T; [2]
  Growth Rate: 0.5
HEK-293T; [5]
  Growth Rate: 0.46
HEK-293T; [10]
  Growth Rate: 0.37
HEK-293T; [6]
  Growth Rate: 0.99
HEK-293T; [7]
  Growth Rate: 0.6
HEK-293T; [4]
  Growth Rate: 0.78
HEK-293T; [8]
  Growth Rate: 0.62
HEK-293T; [9]
  Growth Rate: 1
Fibroblast; [2]
  Growth Rate: 0.22
Fibroblast; [5]
  Growth Rate: 0.03
Fibroblast; [10]
  Growth Rate: 0.66
Fibroblast; [6]
  Growth Rate: -0.15
Fibroblast; [7]
  Growth Rate: 0.17
Fibroblast; [4]
  Growth Rate: -0.21
Fibroblast; [8]
  Growth Rate: 0.47
Fibroblast; [9]
  Growth Rate: -0.18
Fibroblast; [3]
  Growth Rate: 0.58
U2OS; [1]
  Growth Rate: 0.95
U2OS; [2]
  Growth Rate: -1
U2OS; [5]
  Growth Rate: -0.03
U2OS; [10]
  Growth Rate: 0.92
U2OS; [6]
  Growth Rate: 0.61
U2OS; [7]
  Growth Rate: 0.81
U2OS; [4]
  Growth Rate: 0.58
U2OS; [8]
  Growth Rate: 0.78
U2OS; [3]
  Growth Rate: 0.78

## CC(C)Oc1ccc(F)c(-c2cnc(N)c(C(=O)Nc3cnccc3N3CCC[C@@H](C(=O)O)C3)n2)c1
HEK-293T; [1]
  Growth Rate: 0.29
HEK-293T; [2]
  Growth Rate: 0.07
HEK-293T; [5]
  Growth Rate: 0.66
HEK-293T; [10]
  Growth Rate: 0.25
HEK-293T; [6]
  Growth Rate: 0.11
HEK-293T; [7]
  Growth Rate: 0.14
HEK-293T; [4]
  Growth Rate: 0.21
HEK-293T; [8]
  Growth Rate: 0.13
HEK-293T; [9]
  Growth Rate: 0.25
HEK-293T; [3]
  Growth Rate: 0.33
Fibroblast; [1]
  Growth Rate: -0.81
Fibroblast; [2]
  Growth Rate: 0.06
U2OS; [2]
  Growth Rate: -1
U2OS; [8]
  Growth Rate: 0.84
U2OS; [3]
  Growth Rate: 0.73

## CCN1/C(=C/C(C)=O)Sc2ccc(OC(C)=O)cc21
HEK-293T; [1]
  Growth Rate: 0.98
HEK-293T; [2]
  Growth Rate: 0.37
HEK-293T; [5]
  Growth Rate: 0.5
HEK-293T; [10]
  Growth Rate: 0.44
HEK-293T; [6]
  Growth Rate: 0.29
HEK-293T; [7]
  Growth Rate: 0.41
HEK-293T; [4]
  Growth Rate: 0.49
HEK-293T; [8]
  Growth Rate: 0.37
HEK-293T; [9]
  Growth Rate: 0.49
HEK-293T; [3]
  Growth Rate: 0.53
Fibroblast; [5]
  Growth Rate: -0.38
Fibroblast; [10]
  Growth Rate: -0.29
Fibroblast; [6]
  Growth Rate: 0.14
Fibroblast; [7]
  Growth Rate: 0.41
Fibroblast; [4]
  Growth Rate: 0.17
Fibroblast; [9]
  Growth Rate: 0.38
U2OS; [1]
  Growth Rate: -0.53
U2OS; [2]
  Growth Rate: -1
U2OS; [7]
  Growth Rate: 0.89
U2OS; [8]
  Growth Rate: 0.97
U2OS; [3]
  Growth Rate: 0.93

## CN(C)CCCc1cc(C(=O)Nc2ccc(-c3ccncc3)cc2)ccc1O.Cl.Cl
HEK-293T; [1]
  Growth Rate: 0.52
HEK-293T; [2]
  Growth Rate: 0.49
HEK-293T; [5]
  Growth Rate: 0.98
HEK-293T; [10]
  Growth Rate: 0.48
HEK-293T; [6]
  Growth Rate: 0.69
HEK-293T; [7]
  Growth Rate: 0.93
HEK-293T; [4]
  Growth Rate: 0.69
HEK-293T; [9]
  Growth Rate: 0.67
HEK-293T; [3]
  Growth Rate: 0.98
Fibroblast; [1]
  Growth Rate: 0.85
Fibroblast; [2]
  Growth Rate: 0.18
Fibroblast; [5]
  Growth Rate: 0.34
Fibroblast; [10]
  Growth Rate: 0.16
Fibroblast; [6]
  Growth Rate: 0.34
Fibroblast; [4]
  Growth Rate: 0
Fibroblast; [8]
  Growth Rate: 0.66
Fibroblast; [9]
  Growth Rate: -0.07
Fibroblast; [3]
  Growth Rate: 0.69
U2OS; [1]
  Growth Rate: -0.09
U2OS; [2]
  Growth Rate: -0.87

## COc1ccc2c(c1)C(C(=O)N(Cc1ccc(N(C)C)cc1)c1ccc(C(C)C)cc1)CCC2.Cl (stereo unspecified)
HEK-293T; [1]
  Growth Rate: 0.39
HEK-293T; [2]
  Growth Rate: 0.72
HEK-293T; [6]
  Growth Rate: 0.27
HEK-293T; [7]
  Growth Rate: 0.46
HEK-293T; [4]
  Growth Rate: 0.43
HEK-293T; [8]
  Growth Rate: 0.59
HEK-293T; [9]
  Growth Rate: 0.52
HEK-293T; [3]
  Growth Rate: 0.76
Fibroblast; [5]
  Growth Rate: 0.76
Fibroblast; [9]
  Growth Rate: 0.93
U2OS; [1]
  Growth Rate: -0.58
U2OS; [2]
  Growth Rate: -1
U2OS; [5]
  Growth Rate: 0.25
U2OS; [6]
  Growth Rate: 0.93
U2OS; [7]
  Growth Rate: 0.84
U2OS; [4]
  Growth Rate: 0.73
U2OS; [8]
  Growth Rate: 0.81
U2OS; [3]
  Growth Rate: 0.79

## CCNC(=O)[C@H]1O[C@@H](n2cnc3c(N)nc(NCCc4ccc(CCC(=O)O)cc4)nc32)[C@H](O)[C@@H]1O.Cl
HEK-293T; [1]
  Growth Rate: 0.05
HEK-293T; [2]
  Growth Rate: 0.1
HEK-293T; [5]
  Growth Rate: 0.95
Fibroblast; [2]
  Growth Rate: 0.98
Fibroblast; [5]
  Growth Rate: 0.96
Fibroblast; [10]
  Growth Rate: 0.47
Fibroblast; [7]
  Growth Rate: 0.63
U2OS; [1]
  Growth Rate: -0.07
U2OS; [5]
  Growth Rate: 0
U2OS; [10]
  Growth Rate: 0.99
U2OS; [6]
  Growth Rate: 0.64
U2OS; [4]
  Growth Rate: 0.96
U2OS; [3]
  Growth Rate: 0.97
